Measurements published in PubChem BioAssay AID1919009 (Molecular Pharmacology Branch, DTP, NCI, 2023).

System: K24384-001-R-PDC complex spheroid growth
Test: Anticancer human tumor K24384-001-R-PDC patient-derived pancreatic adenocarcinoma cell line growth inhibition [AhR]
Settings: for IC50: curve of first compound; for viability, T/C: stronger effect = lower value
Description: Multicellular complex tumor spheroid response to aryl hydrocarbon receptor antagonists in combination with a variety of drugs and investigational agents in selected tumor cell lines
The current study was undertaken to assess response to aryl hydrocarbon receptor antagonists in combination with standard-of-care drugs and investigational agents in solid tumor complex spheroid models. Complex spheroids include a stromal component modeled by human endothelial cells (HUVEC) and fibroblasts modeled by human mesenchymal stem cells (MSCs). The concentration ranges selected for each drug and investigational agent were based upon clinically achievable concentrations if the clinical Cmax of the agent was known.
Compounds. The drugs and investigational agents: BAY 2416964 (NSC825713), GNF351 (NSC835774), CH-223191 (NSC835775), CPI-455 (NSC825282), aza-TdCyd (NSC777586), decitabine (NSC127716), belinostat (NSC758774), entinostat (NSC756642), pevonedistat (NSC761192), tazemetostat (NSC777109), talazoparib (NSC765396), olaparib (NSC753686), selinexor (NSC780203), nedisertib (M3814, NSC802822), bortezomib (NSC756655), venetoclax (NSC766270), doxorubicin (NSC123127), elimusertib (BAY189344, NSC800525), ceralasertib (AZD6738, NSC777638), TAK-243 (NSC785004), alisertib (NSC759677), etoposide (NSC141540), topotecan (NSC609699), eribulin (NSC707389), gemcitabine (NSC613327), carboplatin (NSC241240), cisplatin (NSC119875), and SN-38 (NSC673596) were obtained from the National Cancer Institute (NCI) Developmental Therapeutics Program Chemical Repository (32). The FDA-approved anticancer drug set is available from the Developmental Therapeutics Program at https://dtp.cancer.gov/organization/dscb/obtaining/available plates.htm. […] The stock solutions were prepared in dimethyl sulfoxide (DMSO, Sigma-Aldrich, St. Louis, MO, cat. D2650), except for the platinum compounds which were prepared in saline (Quality Biological, Gaithersburg, MD, cat. 114-055-101), at 800-fold the tested concentration and stored at -70 degrees C prior to their use. All drugs and investigational agents were tested over a range starting from a high concentration at or near the clinical Cmax and decreasing in half-log increments. If the clinical Cmax for an agent had not been determined, the highest concentration tested was 10 microM (Table 1).
Cell Culture. All cells were maintained in an incubator at 37 degrees C and 5% CO2 with 95% humidity. The PDC lines were cultured according to standard operating procedures established by the NCI PDMR (https://pdmr.cancer.gov). Briefly, all PDCs were thawed and cultured in Matrigel-coated flasks prepared with a working solution of 1X Ham's F-12 nutrient mix, without supplementation (Invitrogen, Waltham, MA, cat. 11765054), 100 U/mL penicillin-streptomycin (Invitrogen, cat. 15140122), and 2.5% Matrigel (Corning Inc., Corning, NY, cat. 354248) for the first three passages. All PDCs were cultured in complete DMEM/F-12 media containing advanced DMEM/F-12 (Invitrogen, cat. 12634028), 4.9% defined fetal bovine serum, heat inactivated (HyClone Laboratories Inc., Logan, UT, cat. SH30070.03HI), 389 ng/mL hydrocortisone (Sigma-Aldrich, cat. H4001), 9.7 ng/mL human EGF recombinant protein (Invitrogen, cat. PHG0313), 23.4 microg/mL adenine (Sigma-Aldrich, cat. A2786), 97.3 U/mL penicillin-streptomycin (Invitrogen, cat. 15140122), 1.9 mM L-glutamine (Invitrogen, cat. 25030081), and 9.7 microM Y-27632 dihydrochloride (Tocris Bioscience, Bristol, United Kingdom, cat. 1254). The PDCs were cultured in complete DMEM/F12 media without 10 microM Y-27632 dihydrochloride for at least two passages prior to the screen. The established cell lines NCI-H1341 and […] were cultured in DMEM/F-12, HEPES (Invitrogen, cat. 11330032), 5% defined fetal bovine serum (HyClone Laboratories Inc., cat. SH30070.03), ITS premix universal culture supplement [insulin (5 microg/mL), transferrin (5 microg/mL), and selenious acid (5 ng/mL)] […]
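Wherever viability, T/C is given: percent of DMSO vehicle-treated spheroid viability set as 100%.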

For `CCc1c2c(nc3ccc(O)cc13)-c1cc3c(c(=O)n1C2)COC(=O)[C@]3(O)CC` + CC(CO)NC(=O)c1cc(-c2ccc(Cl)cc2)nn(-c2cnn(C)c2)c1=O, the IC50 (second compound 0.1 µM) was 9.38 nM, the IC50 (second compound 0.316 µM) was 6.85 nM and the IC50 (second compound 1 µM) was 8.65 nM. The IC50 (second compound 3.16 µM) was 11.5 nM, the IC50 (second compound 10 µM) was 19.8 nM and the viability, T/C (second compound 0.1 µM, first compound 0.000949 µM) was 53.8%. The viability, T/C (second compound 0.1 µM, first compound 0.003 µM) was 58.1%, the viability, T/C (second compound 0.1 µM, first compound 0.00949 µM) was 52.2% and the viability, T/C (second compound 0.1 µM, first compound 0.03 µM) was 36.1%. For the same compound, the viability, T/C (second compound 0.1 µM, first compound 0.0949 µM) was 40.8%, the viability, T/C (second compound 0.1 µM, first compound 0.3 µM) was 26.7% and the viability, T/C (second compound 0.316 µM, first compound 0.000949 µM) was 70.6%. The viability, T/C (second compound 0.316 µM, first compound 0.003 µM) was 53.1%, the viability, T/C (second compound 0.316 µM, first compound 0.00949 µM) was 48.9% and the viability, T/C (second compound 0.316 µM, first compound 0.03 µM) was 38.2%. The viability, T/C (second compound 0.316 µM, first compound 0.0949 µM) was 34.6%, the viability, T/C (second compound 0.316 µM, first compound 0.3 µM) was 25% and the viability, T/C (second compound 1 µM, first compound 0.000949 µM) was 63.5%. For the same compound, the viability, T/C (second compound 1 µM, first compound 0.003 µM) was 56.4%, the viability, T/C (second compound 1 µM, first compound 0.00949 µM) was 51.5% and the viability, T/C (second compound 1 µM, first compound 0.03 µM) was 34.8%. The viability, T/C (second compound 1 µM, first compound 0.0949 µM) was 27.9%, the viability, T/C (second compound 1 µM, first compound 0.3 µM) was 21% and the viability, T/C (second compound 3.16 µM, first compound 0.000949 µM) was 55.8%. For the same compound, the viability, T/C (second compound 3.16 µM, first compound 0.003 µM) was 52.6%, the viability, T/C (second compound 3.16 µM, first compound 0.00949 µM) was 54.6% and the viability, T/C (second compound 3.16 µM, first compound 0.03 µM) was 34.6%. For the same compound, the viability, T/C (second compound 3.16 µM, first compound 0.0949 µM) was 26.6%, the viability, T/C (second compound 3.16 µM, first compound 0.3 µM) was 19.3% and the viability, T/C (second compound 10 µM, first compound 0.000949 µM) was 63.9%. The viability, T/C (second compound 10 µM, first compound 0.003 µM) was 54.4%, the viability, T/C (second compound 10 µM, first compound 0.00949 µM) was 57.3% and the viability, T/C (second compound 10 µM, first compound 0.03 µM) was 47%. The viability, T/C (second compound 10 µM, first compound 0.0949 µM) was 30.3% and the viability, T/C (second compound 10 µM, first compound 0.3 µM) was 19.4%.
